≈ marks a conversion by molar mass, not a printed value. Where two headings read alike, the source gives them in different places.
How the values were obtained:
Human topoisomerase IIα = biological target: T1, Human topoisomerase IIα (Homo sapiens, UniProt P11388); assay: Human topoisomerase II Alpha Relaxation High Throughput Plate assay; format: biochemical; settings: 0.5 h; residual activity of the enzyme at compound concentration 10 μM, mean ± SD; read-out: Human Topo II (% RA)
T1 construct: purchased Inspiralis (Norwich, UK)
T1 sequence (P11388 whole entry): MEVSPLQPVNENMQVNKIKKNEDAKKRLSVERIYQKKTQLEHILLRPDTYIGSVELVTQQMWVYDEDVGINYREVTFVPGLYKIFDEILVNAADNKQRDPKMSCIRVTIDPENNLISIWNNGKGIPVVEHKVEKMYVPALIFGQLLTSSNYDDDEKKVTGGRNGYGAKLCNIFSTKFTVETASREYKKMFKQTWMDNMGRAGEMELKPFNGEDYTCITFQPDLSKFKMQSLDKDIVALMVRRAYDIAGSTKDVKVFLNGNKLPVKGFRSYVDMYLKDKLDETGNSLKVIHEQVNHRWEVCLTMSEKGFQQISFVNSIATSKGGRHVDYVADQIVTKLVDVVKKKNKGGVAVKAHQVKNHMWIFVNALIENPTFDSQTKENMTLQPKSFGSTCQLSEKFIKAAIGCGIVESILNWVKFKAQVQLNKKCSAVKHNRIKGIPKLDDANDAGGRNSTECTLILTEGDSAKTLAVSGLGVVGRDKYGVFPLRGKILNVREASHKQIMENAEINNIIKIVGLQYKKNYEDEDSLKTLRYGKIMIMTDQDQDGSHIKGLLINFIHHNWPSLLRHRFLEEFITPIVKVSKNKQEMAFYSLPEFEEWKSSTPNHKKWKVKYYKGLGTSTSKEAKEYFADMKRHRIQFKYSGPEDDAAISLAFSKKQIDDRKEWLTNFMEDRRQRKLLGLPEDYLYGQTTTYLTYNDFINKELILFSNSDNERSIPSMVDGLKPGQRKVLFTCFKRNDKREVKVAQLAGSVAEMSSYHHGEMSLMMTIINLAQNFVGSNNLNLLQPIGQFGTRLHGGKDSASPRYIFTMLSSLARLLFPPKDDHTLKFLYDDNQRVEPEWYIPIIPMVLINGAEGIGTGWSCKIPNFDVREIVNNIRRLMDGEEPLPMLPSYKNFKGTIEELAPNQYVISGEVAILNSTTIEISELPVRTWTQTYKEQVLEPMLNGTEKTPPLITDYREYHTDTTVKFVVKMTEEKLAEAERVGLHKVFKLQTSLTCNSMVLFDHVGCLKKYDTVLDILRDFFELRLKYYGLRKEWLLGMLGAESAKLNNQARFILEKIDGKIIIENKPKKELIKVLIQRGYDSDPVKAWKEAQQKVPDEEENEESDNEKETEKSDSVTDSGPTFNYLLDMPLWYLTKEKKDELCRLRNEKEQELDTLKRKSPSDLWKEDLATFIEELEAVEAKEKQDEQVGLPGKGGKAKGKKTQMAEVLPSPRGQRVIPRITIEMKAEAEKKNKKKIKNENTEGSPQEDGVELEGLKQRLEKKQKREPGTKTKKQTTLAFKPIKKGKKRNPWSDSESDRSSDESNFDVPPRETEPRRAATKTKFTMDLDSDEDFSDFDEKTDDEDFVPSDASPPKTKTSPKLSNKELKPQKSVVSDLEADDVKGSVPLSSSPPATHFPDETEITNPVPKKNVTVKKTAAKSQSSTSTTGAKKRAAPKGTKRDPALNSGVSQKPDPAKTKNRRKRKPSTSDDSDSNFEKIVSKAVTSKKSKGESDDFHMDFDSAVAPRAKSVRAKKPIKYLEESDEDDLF
Protocol: A Human topoisomerase II Alpha Relaxation High Throughput Plate assay kit, purchased from Inspiralis (Norwich, UK) was used to evaluate the selectivity of compounds for the bacterial enzymes over the homologous human topoisomerase II. […] Biotinylated oligonucleotide in wash buffer was immobilized onto the wells and the excess oligonucleotide was washed off with wash buffer. […] The reactions were stopped by adding the TF buffer (50 mM NaOAc (pH 4.7), 50 mM NaCl, and 50 mM MgCl2) to allow the triplex formation (biotin-oligonucleotide-plasmid) for additional 30 min. Afterward, the unbound plasmid was washed off using TF buffer, and the solution of Promega Diamond dye in T10 buffer (10 mM Tris-HCl (pH 8.0), 1 mM EDTA) was added. […] Screening was performed at inhibitor concentrations of 10 μM. Raw data were converted to mean ± SD percentage of residual activity of the enzyme obtained by two independent measurements.

MRSA = assay: MIC broth microdilution, MRSA; format: cell-based, methicillin-resistant S. aureus; settings: Staphylococcus aureus, read-out: MIC MRSA
Protocol: (§1) Antimicrobial testing was carried out by the broth microdilution method in 96-well plate format following the Clinical and Laboratory Standards Institute (CLSI) guidelines and European Committee on Antimicrobial Susceptibility Testing (EUCAST) recommendations. Bacterial suspension of specific bacterial strain equivalent to 0.5 McFarland turbidity standard was diluted with cation-adjusted Mueller Hinton broth with TES (Thermo Fisher Diagnostic, Landsmeer, The Netherlands), to obtain a final inoculum of 10^5 CFU/mL. Compounds dissolved in DMSO and inoculum were mixed together and incubated for 18–20 h at 35 °C. Suspensions of Mycobacterium sp. were prepared into a tube of Middelbrook 7H9 broth supplemented with 5% OADC (Thermo Scientific, Trek Diagnostic Systems, West Sussex, UK) and incubated for at least 10 days. After incubation the minimal inhibitory concentration (MIC) values were determined by visual inspection as the lowest dilution of compounds showing no turbidity. Tetracycline was used as a positive control on every assay plate.

[1] = test system: A. baumannii 8C6 (GES-14); assay: MIC broth microdilution, A. baumannii; format: cell-based; settings: Acinetobacter baumannii; read-out: MIC A. baumannii 8C6 (GES-14)
Protocol: as §1

S. aureus (ATCC 29213) = assay: MIC broth microdilution, S. aureus ATCC 29213; format: cell-based; settings: Staphylococcus aureus, ATCC29213
Protocol: as §1

[2] = test system: E. faecalis DRK 057 (ATCC 29212); assay: MIC broth microdilution, E. faecalis; format: cell-based; settings: Enterococcus faecalis, ATCC29212; read-out: MIC E. faecalis DRK 057 (ATCC 29212)
Protocol: as §1

E. coli D22 = assay: MIC broth microdilution, E. coli D22; format: cell-based; settings: Escherichia coli, D22; mutation in the lpxC gene that increases membrane permeability; read-out: MIC E. coli D22
Protocol: as §1

[3] = test system: P. aeruginosa RDK 184 (DSM 939); assay: MIC broth microdilution, P. aeruginosa; format: cell-based; settings: Pseudomonas aeruginosa, DSM939; read-out: MIC P. aeruginosa RDK 184 (DSM 939)
Protocol: as §1

E. coli Topo IV = biological target: T2, E. coli Topo IV (Escherichia coli, UniProt P0AFI2); assay: Topo IV Relaxation High Throughput Plate assay, E. coli; format: biochemical; settings: for LE Topo IV E. coli: LE = (1.37/HA) × pIC50
T2 construct: purchased Inspiralis (Norwich, UK)
T2 sequence (P0AFI2 whole entry): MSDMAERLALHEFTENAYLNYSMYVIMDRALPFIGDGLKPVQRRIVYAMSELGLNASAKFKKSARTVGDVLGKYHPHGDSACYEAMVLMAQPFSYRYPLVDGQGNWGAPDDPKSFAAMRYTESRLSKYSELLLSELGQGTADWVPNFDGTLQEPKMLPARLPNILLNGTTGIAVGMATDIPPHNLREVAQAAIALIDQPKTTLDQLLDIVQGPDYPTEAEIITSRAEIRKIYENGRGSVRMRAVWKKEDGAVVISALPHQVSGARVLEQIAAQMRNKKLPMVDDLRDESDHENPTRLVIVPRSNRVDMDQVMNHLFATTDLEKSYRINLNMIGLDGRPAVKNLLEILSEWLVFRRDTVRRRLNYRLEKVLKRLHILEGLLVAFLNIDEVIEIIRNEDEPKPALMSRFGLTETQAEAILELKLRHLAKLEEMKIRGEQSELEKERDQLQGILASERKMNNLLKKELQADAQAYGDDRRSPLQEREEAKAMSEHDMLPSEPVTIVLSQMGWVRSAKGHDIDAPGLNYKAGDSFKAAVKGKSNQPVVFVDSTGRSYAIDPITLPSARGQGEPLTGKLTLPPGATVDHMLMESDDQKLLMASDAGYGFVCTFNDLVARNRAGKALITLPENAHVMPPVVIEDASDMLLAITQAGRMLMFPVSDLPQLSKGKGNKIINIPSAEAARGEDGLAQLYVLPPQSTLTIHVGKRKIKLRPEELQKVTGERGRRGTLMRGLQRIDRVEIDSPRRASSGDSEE
T2 sequence (P20083 whole entry, further chain): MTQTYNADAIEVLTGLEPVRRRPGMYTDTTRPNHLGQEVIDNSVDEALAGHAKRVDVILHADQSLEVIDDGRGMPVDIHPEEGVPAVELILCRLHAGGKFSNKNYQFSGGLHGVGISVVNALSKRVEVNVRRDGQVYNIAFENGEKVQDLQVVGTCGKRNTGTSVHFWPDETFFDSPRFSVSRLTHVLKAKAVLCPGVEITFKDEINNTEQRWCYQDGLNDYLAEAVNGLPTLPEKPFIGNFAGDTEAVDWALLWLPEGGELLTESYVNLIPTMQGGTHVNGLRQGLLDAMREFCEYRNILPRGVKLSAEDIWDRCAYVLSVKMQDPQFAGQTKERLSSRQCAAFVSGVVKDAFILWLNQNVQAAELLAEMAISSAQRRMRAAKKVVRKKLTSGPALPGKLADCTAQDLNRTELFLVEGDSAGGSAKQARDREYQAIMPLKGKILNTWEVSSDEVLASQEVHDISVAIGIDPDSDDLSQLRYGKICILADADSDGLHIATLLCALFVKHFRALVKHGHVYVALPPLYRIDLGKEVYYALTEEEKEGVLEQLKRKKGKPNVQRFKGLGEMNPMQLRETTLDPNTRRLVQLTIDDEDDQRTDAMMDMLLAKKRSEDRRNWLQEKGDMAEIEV
Protocol: (§2) A Topo IV Relaxation High Throughput Plate assay kit, purchased from Inspiralis (Norwich. UK) was used to determine IC50 values of compounds on S. aureus and E. coli. […] Biotinylated oligonucleotide in wash buffer was immobilized onto the wells, and the excess oligonucleotide was washed off with wash buffer and ultrapure water. 1.5 U of S. aureus or E. coli […] enzyme was incubated together with 0.75 μg of supercoiled pNO1 plasmid as a substrate in the presence of 3 μL inhibitor solution in 10% DMSO and 0.008% Tween 20 at 37 °C for 30 min in a final reaction volume of 30 μL in dilution buffer (50 mM Tris-HCl (pH 7.5), 1 mM DTT, 1 mM EDTA, 40% (w/v) glycerol for S. aureus and 40 mM HEPES, KOH (pH 7.6), 100 mM potassium glutamate, 1 mM DTT, 1 mM EDTA, and 40% (v/v) glycerol for E. coli). The reactions were stopped by adding the TF buffer (50 mM NaOAc (pH 4.7), 50 mM NaCl, and 50 mM MgCl2) to allow the triplex formation (biotin-oligonucleotide-plasmid) for additional 30 min. Afterward, the unbound plasmid was washed off using TF buffer, and the solution of Promega Diamond dye in T10 buffer (10 mM Tris-HCl (pH 8.0), 1 mM EDTA) was added. […] IC50 value represents the mean of two to four independent measurements.

S. pneumoniae (QA-10/02) = assay: MIC broth microdilution, S. pneumoniae; format: cell-based; settings: Streptococcus pneumoniae
Protocol: as §1

S. aureus Topo IV = biological target: T3, S. aureus Topo IV (Staphylococcus aureus, UniProt Q2FYS4); assay: biochemical; settings: for IC50: mean of two to four measurements, read-out: Topoisomerase IV IC50 S. aureus; for LE Topo IV S. aureus: LE = (1.37/HA) × pIC50
T3 construct: purchased Inspiralis (Norwich, UK)
T3 sequence (Q2FYS5 whole entry): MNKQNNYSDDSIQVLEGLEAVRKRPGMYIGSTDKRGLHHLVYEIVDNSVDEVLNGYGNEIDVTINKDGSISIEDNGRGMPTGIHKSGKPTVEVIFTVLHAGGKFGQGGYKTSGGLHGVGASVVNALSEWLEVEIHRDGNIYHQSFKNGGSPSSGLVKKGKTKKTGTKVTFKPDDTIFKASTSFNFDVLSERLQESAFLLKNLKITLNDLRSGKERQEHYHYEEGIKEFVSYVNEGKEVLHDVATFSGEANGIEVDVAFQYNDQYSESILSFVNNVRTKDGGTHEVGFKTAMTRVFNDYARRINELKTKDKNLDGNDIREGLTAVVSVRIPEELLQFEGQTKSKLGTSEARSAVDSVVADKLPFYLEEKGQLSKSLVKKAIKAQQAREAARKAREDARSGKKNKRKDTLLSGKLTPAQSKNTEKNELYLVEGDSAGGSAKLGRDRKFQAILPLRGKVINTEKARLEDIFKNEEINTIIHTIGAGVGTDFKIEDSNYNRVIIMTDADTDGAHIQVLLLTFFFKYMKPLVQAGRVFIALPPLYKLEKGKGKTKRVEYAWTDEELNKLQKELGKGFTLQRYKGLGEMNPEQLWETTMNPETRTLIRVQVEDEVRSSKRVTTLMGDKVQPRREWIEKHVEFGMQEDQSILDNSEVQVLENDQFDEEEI
T3 sequence (Q2FYS4 whole entry): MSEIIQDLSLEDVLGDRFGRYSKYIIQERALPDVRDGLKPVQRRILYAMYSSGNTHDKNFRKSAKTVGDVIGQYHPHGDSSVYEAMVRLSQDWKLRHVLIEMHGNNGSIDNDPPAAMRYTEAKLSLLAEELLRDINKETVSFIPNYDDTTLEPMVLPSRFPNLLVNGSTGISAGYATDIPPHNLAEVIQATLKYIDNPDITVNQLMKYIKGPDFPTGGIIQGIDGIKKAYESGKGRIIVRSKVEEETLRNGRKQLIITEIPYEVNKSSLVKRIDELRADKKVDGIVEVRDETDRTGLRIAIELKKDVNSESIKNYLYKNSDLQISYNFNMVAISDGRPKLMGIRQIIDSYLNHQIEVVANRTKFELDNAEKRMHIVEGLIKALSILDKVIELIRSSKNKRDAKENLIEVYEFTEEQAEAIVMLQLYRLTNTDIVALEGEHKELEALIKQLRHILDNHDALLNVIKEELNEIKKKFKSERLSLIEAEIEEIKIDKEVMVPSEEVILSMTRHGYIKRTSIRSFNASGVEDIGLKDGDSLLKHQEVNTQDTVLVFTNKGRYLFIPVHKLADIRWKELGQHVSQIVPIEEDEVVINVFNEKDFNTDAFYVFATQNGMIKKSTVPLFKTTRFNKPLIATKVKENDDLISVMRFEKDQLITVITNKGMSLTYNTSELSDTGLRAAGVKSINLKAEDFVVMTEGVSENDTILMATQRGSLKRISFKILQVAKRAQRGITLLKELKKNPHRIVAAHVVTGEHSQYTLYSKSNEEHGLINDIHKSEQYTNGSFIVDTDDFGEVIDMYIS
Protocol: as §2

MRSA (QA-11.7) = assay: MIC broth microdilution, MRSA QA-11.7; format: cell-based, methicillin-resistant S. aureus; settings: Staphylococcus aureus, 20 h, read-out: MIC MRSA (QA-11.7)
Protocol: as §1

MRSA (QA-11.4) = assay: MIC broth microdilution, MRSA QA-11.4; format: cell-based, methicillin-resistant S. aureus; settings: Staphylococcus aureus, 20 h, resistant to cefoxitin, read-out: MIC MRSA (QA-11.4)
Protocol: as §1

M. smegmatis = assay: MIC, M. smegmatis; format: cell-based, Mycobacterium smegmatis; settings: Mycolicibacterium smegmatis; read-out: MIC M. smegmatis
Protocol: as §1

[4] = test system: C. jejuni RDK 135 (ATCC 33560); assay: MIC broth microdilution, C. jejuni; format: cell-based; settings: Campylobacter jejuni, ATCC33560; read-out: MIC C. jejuni RDK 135 (ATCC 33560)
Protocol: as §1

E. coli (QA-11.3) = assay: MIC broth microdilution, E. coli QA-11.3; format: cell-based; settings: Escherichia coli, 20 h; read-out: MIC E. coli (QA-11.3)
Protocol: as §1

E. coli (ATCC 25922) = assay: MIC broth microdilution, E. coli ATCC 25922; format: cell-based; settings: Escherichia coli
In short: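 For the mycobacterial strain, suspensions in Middelbrook 7H9 broth with 5% OADC were incubated no less than 10 days. Other strains: cation-adjusted Mueller Hinton/TES broth, 10^5 CFU/mL final, 35 °C for 18–20 h. Endpoint: no turbidity by visual inspection; tetracycline served as plate control.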

E. coli (QA-11.7) = assay: MIC broth microdilution, E. coli QA-11.7; format: cell-based; settings: Escherichia coli, 20 h; multi-resistant isolate (ampicillin, azithromycin, cefotaxime, ertapenem, imipenem and others); read-out: MIC E. coli (QA-11.7)
Protocol: as §1

[5] = S. aureus ATCC 29213, read-out: S. aureus MIC (converted)
[6] = read-out: MIC S. aureus (ATCC 29213)
[7] = ATCC25922, E. coli ATCC 25922, read-out: E. coli MIC (converted)
[8] = ATCC25922, read-out: MIC E. coli (ATCC 25922)

| Structure (SMILES) | remaining activity at 10 µM (Human topoisomerase IIα) | MIC (MRSA) | MIC [1] | MIC (S. aureus (ATCC 29213); [5]) | MIC (S. aureus (ATCC 29213); [6]) | MIC [2] | MIC (E. coli D22) | MIC [3] | IC50 (E. coli Topo IV) | LE Topo IV E. coli (E. coli Topo IV) | MIC (S. pneumoniae (QA-10/02)) | IC50 (S. aureus Topo IV) | MIC (MRSA (QA-11.7)) | MIC (MRSA (QA-11.4)) | MIC (M. smegmatis) | MIC [4] | MIC (E. coli (QA-11.3)) | MIC (E. coli (ATCC 25922); [7]) | MIC (E. coli (ATCC 25922); [8]) | MIC (E. coli (QA-11.7)) | also measured |
| --- | --- | --- | --- | --- | --- | --- | --- | --- | --- | --- | --- | --- | --- | --- | --- | --- | --- | --- | --- | --- | --- |
| COc1ccc2nccc(CCN3CCC(NCc4ccc(CO)cc4)CC3)c2n1 [Compound 16] | 97.7 ± 1.08% | 4 µg/mL (≈ 9.84 µM) | 128 µg/mL (≈ 315 µM) | 9.84 µM | 4 µg/mL | 8 µg/mL (≈ 19.7 µM) | 16 µg/mL (≈ 39.4 µM) | > 128 µg/mL | 1.21 ± 0.05 µM | 0.27 | 2 µg/mL (≈ 4.92 µM) | > 100 µM | 4 µg/mL (≈ 9.84 µM) | 8 µg/mL (≈ 19.7 µM) | 32 µg/mL (≈ 78.7 µM) | 32 µg/mL (≈ 78.7 µM) | 32 µg/mL (≈ 78.7 µM) | 315 µM | 128 µg/mL | 32 µg/mL (≈ 78.7 µM) |  |
| COc1ccc2nccc(CCN3CCC(NCc4ccc(C(N)=O)cc4)CC3)c2n1 [Compound 17] | 97.8 ± 2.21% | 4 µg/mL (≈ 9.53 µM) | 128 µg/mL (≈ 305 µM) | 4.77 µM | 2 µg/mL | 128 µg/mL (≈ 305 µM) | 128 µg/mL (≈ 305 µM) | > 128 µg/mL | 1.15 ± 0.03 µM | 0.26 | 16 µg/mL (≈ 38.1 µM) | > 100 µM | 4 µg/mL (≈ 9.53 µM) | 8 µg/mL (≈ 19.1 µM) | 16 µg/mL (≈ 38.1 µM) | 128 µg/mL (≈ 305 µM) | 128 µg/mL (≈ 305 µM) |  | > 128 µg/mL | 128 µg/mL (≈ 305 µM) | MIC (E. coli (ATCC 25922); ATCC25922, 20 h, E. coli ATCC 25922, read-out: E. coli MIC (converted)): 305 µM |
| COc1ccc2nccc(CCN3CCC(NCc4ccc(OC(F)F)c(OC)c4)CC3)c2n1 [Compound 19, N-(4-(Difluoromethoxy)-3-methoxybenzyl)-1-(2-(6-methoxy-1,5-naphthyridin-4-yl)ethyl)piperidin-4-amine] | 96.4 ± 2.3% | 2 µg/mL (≈ 4.23 µM) | 8 µg/mL (≈ 16.9 µM) | 2.12 µM | 1 µg/mL | 16 µg/mL (≈ 33.9 µM) | 16 µg/mL (≈ 33.9 µM) | > 128 µg/mL | 0.1 ± 0.01 µM | 0.28 | 2 µg/mL (≈ 4.23 µM) | 29 ± 1.89 µM | 2 µg/mL (≈ 4.23 µM) | 2 µg/mL (≈ 4.23 µM) | 4 µg/mL (≈ 8.46 µM) | 2 µg/mL (≈ 4.23 µM) | 4 µg/mL (≈ 8.46 µM) | 67.7 µM | 32 µg/mL | 2 µg/mL (≈ 4.23 µM) | LE Topo IV S. aureus (S. aureus Topo IV): 0.18 |
| COc1ccc2nccc(CCN3CCC(NCc4ccc(OC(F)F)c(O)c4)CC3)c2n1 [Compound 20, 2-(Difluoromethoxy)-5-((1-(2-(6-methoxy-1,5-naphthyridin-4-yl)ethyl)piperidin-4-ylamino)methyl)phenol] | 94.8% | 1 µg/mL (≈ 2.18 µM) | 4 µg/mL (≈ 8.72 µM) | 1.09 µM | 0.5 µg/mL | 4 µg/mL (≈ 8.72 µM) | 2 µg/mL (≈ 4.36 µM) | > 128 µg/mL | 0.06 µM | 0.30 | 1 µg/mL (≈ 2.18 µM) | > 100 µM | 0.5 µg/mL (≈ 1.09 µM) | 2 µg/mL (≈ 4.36 µM) | 0.5 µg/mL (≈ 1.09 µM) | 0.015 µg/mL (≈ 0.0327 µM) | 1 µg/mL (≈ 2.18 µM) | 17.4 µM | 8 µg/mL | 2 µg/mL (≈ 4.36 µM) |  |
| COc1ccc2nccc(CCN3CCC(NCc4ccc(C(F)(F)F)nc4)CC3)c2n1 [Compound 21, 1-(2-(6-Methoxy-1,5-naphthyridin-4-yl)ethyl)-N-((6-(trifluoromethyl)pyridin-3-yl)methyl)piperidin-4-amine] | 95.5 ± 2.39% | 0.5 µg/mL (≈ 1.12 µM) | 16 µg/mL (≈ 35.9 µM) | 0.56 µM | 0.25 µg/mL | 2 µg/mL (≈ 4.49 µM) | 4 µg/mL (≈ 8.98 µM) | > 128 µg/mL | > 100 µM |  | 1 µg/mL (≈ 2.24 µM) | 18.5 ± 1.32 µM | 1 µg/mL (≈ 2.24 µM) | 1 µg/mL (≈ 2.24 µM) | 0.25 µg/mL (≈ 0.561 µM) | 128 µg/mL (≈ 287 µM) | 8 µg/mL (≈ 18 µM) | 71.8 µM | 32 µg/mL | 2 µg/mL (≈ 4.49 µM) | LE Topo IV S. aureus (S. aureus Topo IV): 0.20 |
| COc1ccc(CNC2CCN(CCc3ccnc4ccc(OC)nc34)CC2)cn1 [Compound 22, 1-(2-(6-Methoxy-1,5-naphthyridin-4-yl)ethyl)-N-((6-methoxypyridin-3-yl)methyl)piperidin-4-amine] | 97 ± 6.94% | 1 µg/mL (≈ 2.45 µM) | 4 µg/mL (≈ 9.82 µM) | 1.19 µM | 0.5 µg/mL | 2 µg/mL (≈ 4.91 µM) | 4 µg/mL (≈ 9.82 µM) | > 128 µg/mL | > 100 µM |  | 1 µg/mL (≈ 2.45 µM) | > 100 µM | 1 µg/mL (≈ 2.45 µM) | 2 µg/mL (≈ 4.91 µM) | 16 µg/mL (≈ 39.3 µM) | 2 µg/mL (≈ 4.91 µM) | 4 µg/mL (≈ 9.82 µM) | 38.1 µM | 16 µg/mL | 2 µg/mL (≈ 4.91 µM) |  |

From publication PMC8300687, “A Fine-Tuned Lipophilicity/Hydrophilicity Ratio Governs Antibacterial Potency and Selectivity of Bifurcated Halogen Bond-Forming NBTIs” (Antibiotics, 2021)
